One test concerns the target T1, muscarinic M2 receptor (Rattus norvegicus, UniProt P10980).
T1 construct: the membrane preparations of the heart were used as the test specimens; from tissue; host or cells: rat heart membranes (male SD rats)
T1 sequence (P10980 1-466): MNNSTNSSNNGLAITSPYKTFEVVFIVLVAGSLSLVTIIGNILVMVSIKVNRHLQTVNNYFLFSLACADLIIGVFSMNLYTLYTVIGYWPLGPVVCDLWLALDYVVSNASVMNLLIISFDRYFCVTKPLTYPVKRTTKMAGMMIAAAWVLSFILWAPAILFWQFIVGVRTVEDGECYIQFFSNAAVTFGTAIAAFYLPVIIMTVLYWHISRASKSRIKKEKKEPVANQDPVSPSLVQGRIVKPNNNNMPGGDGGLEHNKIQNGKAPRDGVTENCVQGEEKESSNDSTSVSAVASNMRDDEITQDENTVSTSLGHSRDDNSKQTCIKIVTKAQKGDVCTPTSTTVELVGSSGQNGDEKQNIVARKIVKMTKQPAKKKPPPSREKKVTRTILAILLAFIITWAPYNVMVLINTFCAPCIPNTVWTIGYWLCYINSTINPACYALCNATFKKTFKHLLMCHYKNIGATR
The test can be described thus: Inhibition of M2 muscarinic receptor binding ([3H]-N-methylscopolamine, heart membrane). As to conditions: 0.2 nM [3H]-N-methylscopolamine. The protocol: Hereinafter action of compounds of the present invention to inhibit binding to muscarinic receptors and their in vitro and in vivo antagonism to muscarinic receptors are described, to concretely indicate utility of the present invention. As the labelling ligand for M1 muscarinic receptor, [^3 H]-telenzepine was used and as that for M2 and M3 muscarinic receptors, [^3 H]-N-methyl-scopolamine was used, and dissociation constants (Ki) were calculated from concentration of each of the tested compounds to inhibit binding of the labelling ligand by 50% (IC50).
(§1) Male SD strain rats weighing each 250 g-350 g [Japan Charles River K.K.] were sacrificed and their cerebral cortices, hearts and lacrimal glands were extirpated. The isolated organs were homogenized with Polytron (setting: 5) in an ice-cooled, 5-times diluted buffer solution (pH 7.4) containing 50 mM tris-hydrochloric acid, 5 mM magnesium chloride, 1 mM ethylenediamine-tetraacetic acid trisodium salt and 20% sucrose, followed by 15 minutes' centrifuge at 3,000×g and 4° C. After filtering the supernatant through gauze cloth, the filtrate was further subjected to an ultracentrifugation at 100,000×g at 4° C. for 45 minutes. The resultant precipitate was suspended in an ice-cooled buffer solution (pH 7.4, hereafter abbreviated as tris buffer) containing 50 mM tris-hydrochloric acid and 5 mM magnesium chloride. The suspension was subjected to an ultracentrifugation at 100,000×g at 4° C. for 45 minutes. The resultant precipitate was suspended in tris buffer at a concentration of 50 mg/ml and kept at -80° C. until the time of use. It was melted at the time of use in the binding inhibition tests.
These tests were performed according to a modification of the method of Hargreaves et al. (Br. J. Pharmacol. 107: pp. 494-501, 1992). […] After drying the filter at 50° C. for an hour, a scintillator (Microscinti O: Packard Instrument Co., Inc.) was added and the radioactivity of the [^3 H]-telenzepine which was adsorbed onto the filter was measured with a microplate scintillation counter (Top Count: Packard Instrument Co., Inc.). Non-specific binding of [^3 H]-telenzepine to the receptors was determined under addition of 10 μM pirenzepine. […]
The test was conducted in the manner similar to above 2) M1 muscarinic receptor binding inhibition test, except that the membrane preparations of the heart were used as the test specimens and 0.2 nM [^3 H]-N-methylscopolamine ([^3 H]-N-Methylscopolamine, 84 Ci/mmol, New England Nuclear) was used as the labelling ligand. Non-specific binding of [^3 H]-N-methylscopolamine to the receptors was determined under addition of 1 μM N-methylscopolamine.

The target of the next test is T2, muscarinic M3 receptor (Rattus norvegicus, UniProt P08483).
T2 construct: the membrane preparations of the lacrimal glands were used as the test specimens; from tissue; host or cells: rat lacrimal gland membranes (male SD rats)
T2 sequence (P08483 whole entry): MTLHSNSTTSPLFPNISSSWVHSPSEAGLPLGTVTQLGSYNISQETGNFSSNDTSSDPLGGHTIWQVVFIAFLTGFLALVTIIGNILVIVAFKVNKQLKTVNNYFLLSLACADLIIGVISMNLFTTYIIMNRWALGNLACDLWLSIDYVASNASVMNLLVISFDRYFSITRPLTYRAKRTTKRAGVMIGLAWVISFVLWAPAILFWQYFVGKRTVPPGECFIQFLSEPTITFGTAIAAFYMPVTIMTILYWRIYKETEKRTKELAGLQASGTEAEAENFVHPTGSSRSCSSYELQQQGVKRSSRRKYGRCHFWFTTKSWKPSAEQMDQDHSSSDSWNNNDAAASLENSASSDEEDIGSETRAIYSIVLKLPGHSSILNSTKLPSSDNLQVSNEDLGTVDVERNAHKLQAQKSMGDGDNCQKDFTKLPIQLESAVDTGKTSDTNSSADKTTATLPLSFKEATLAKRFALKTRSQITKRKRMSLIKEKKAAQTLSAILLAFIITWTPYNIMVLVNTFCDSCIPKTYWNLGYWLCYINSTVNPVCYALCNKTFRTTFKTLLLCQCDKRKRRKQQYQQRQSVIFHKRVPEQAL
The test can be described thus: Inhibition of M3 muscarinic receptor binding ([3H]-N-methylscopolamine, lacrimal gland membrane). As to conditions: for Ki: rat lacrimal gland membrane, 0.02 nM [3H]-N-methylscopolamine; for M1 / M3 / M2 / M3: ratio of binding Ki. The protocol: as §1
(§2) Namely, a cerebral cortex membrane preparation, 1 nM [^3 H]-telenzepine ([^3 H]-Telenzepine, 85 Ci/mmol, New England Nuclear) and a test compound were incubated in 0.5 ml of tris buffer at room temperature (about 20-25° C.) for 120 minutes. Into the incubated system, 0.5 ml of ice-cooled tris buffer was added and suction-filtered with a glass filter (Packard Unifilter Plate GF/C). The filter was washed 4 times each with 1 ml of ice-cooled tris buffer. After drying the filter at 50° C. for an hour, a scintillator (Microscinti O: Packard Instrument Co., Inc.) was added and the radioactivity of the [^3 H]-telenzepine which was adsorbed onto the filter was measured with a microplate scintillation counter (Top Count: Packard Instrument Co., Inc.). Non-specific binding of [^3 H]-telenzepine to the receptors was determined under addition of 10 μM pirenzepine.
The test was conducted in the manner similar to above 2) M1 muscarinic receptor binding inhibition test, except that the membrane preparations of the lacrimal glands were used as the test specimens and 0.02 nM [^3 H]-N-methylscopolamine was used as the labelling ligand. Non-specific binding of [^3 H]-N-methylscopolamine to the receptor was determined under addition of 1 μM N-methylscopolamine.

A further test addresses T3, right atrium M2 receptor (Rattus norvegicus, UniProt P10980).
T3 construct: the right atrium was isolated; from tissue; host or cells: isolated rat right atrium (male SD rats)
T3 sequence (P10980 1-466): T1 sequence (P10980 1-466)
The test is described as follows: Antagonism to M2 receptor in isolated rat right atrium. As to conditions: agonist carbachol. The protocol:
This test was conducted following the method of Wess, et al. [British Journal of Pharmacology, Vol. 102, pp. 246-250]. Male SD strain rats (weighing 200-300 g) were sacrificed by exsanguination and the right atrium was isolated. […] The heart rate was recorded with a heart rate counter. After the preparation was equilibrated for 30 minutes, carbachol (10^-9 to 10^-6 M) was cumulatively administered from a low concentration to three-fold increased doses. Thus, a decrease in heart rate was measured to obtain a control dose-response curve. After the preparation was washed with fresh solution to recover the heart rate, a test compound was administered thereto. Ten minutes later, carbachol was cumulatively administered again. Carbachol-induced responses were expressed as percentages based on the heart rate before administration of carbachol as 100%.

For a further test, the target named is T4, airway M3 receptor (Rattus norvegicus, UniProt P08483).
T4 construct: the trachea was isolated; from tissue; host or cells: isolated rat trachea (male SD rats)
T4 sequence (P08483 whole entry): as above
The test can be described thus: Antagonism to airway M3 receptor in isolated rat trachea. The note with it: agonist carbachol.

The target of the next test is T5, ileum M3 receptor (Rattus norvegicus, UniProt P08483).
T5 construct: the ileum was isolated and formed into 2 cm-long preparations; from tissue; host or cells: isolated rat ileum (male SD rats)
T5 sequence (P08483 whole entry): as above
The test is described as follows: Antagonism to intestinal tract M3 receptor in isolated rat ileum. As to conditions: agonist carbachol, read-out: KB ileus M3. As for the experimental part:
Male SD strain rats (200-300 g) were sacrificed by exsanguination, and the ileum was isolated and formed into 2 cm-long preparations. […] Tension in the preparation was isotonically recorded. After an hour's equilibration, the preparation was contracted twice with 10^-6 M carbachol, the second contraction being recorded as the reference contraction. After the preparation was washed with fresh solution and recovered to the base line, a test compounds was administered thereto (or no treatment was given). Ten minutes later, carbachol (10^-8 to 10^-3 M) was cumulatively administered to the preparation from at a low concentration to three-fold increased dose to obtain a dose-response curve. The dose-response curve was plotted by expressing responses as percentages based on the reference contraction of the preparation which was set to be 100%.

In the next test the target is T6, bladder M3 receptor (Rattus norvegicus, UniProt P08483).
T6 construct: the urinary bladder was isolated; from tissue; host or cells: isolated rat urinary bladder (male SD rats)
T6 sequence (P08483 whole entry): as above
The test can be described thus: Antagonism to bladder M3 receptor in isolated rat urinary bladder. The note with it: agonist carbachol.

Test [1] concerns airway resistance increase. The test can be described thus: Airway resistance enhancement in rats (acetylcholine-induced). The note with it: for ED50: iv, 5 min, rat, i.v., acetylcholine 50 μg/kg, read-out: airway constriction ID50; for activities in both airway constriction and bradycardia, in words: in vivo, Table 3, both tests. Type of test: in vivo, rat. As for the experimental part: Eight- to eleven-weeks-old Sprague-Dawley strain rats (300-400 g) were anesthetized with urethane (750 mg/kg, i.p.) and α-chloralose (37.5 mg/kg, i.p.). The bronchus of each rat was intubated, and the right jugular vein was cannulated for drug administration. […] After stable airway resistance increase induced by intravenous administration of acetylcholine (50 μg/kg) was observed, a test compound was administered intravenously. After 5 minutes, once again the airway resistance increase was induced with acetylcholine. The inhibition ratio of the tested compound on the airway resistance increase before administration of the test compound was calculated, and the dose of the test compound which inhibited the airway resistance obtained before the drug administration by 50% was recorded as ID50 value.

A further test deals with bradycardia. The test is described as follows: Rat bradycardia (acetylcholine-induced). Format: in vivo. The note with it: for ED50: iv, 5 min, rat, i.v., acetylcholine 10 μg/kg, read-out: bradycardia ID50; for selectivity of bronchodilation over bradycardiac response, in words: in vivo, Table 3. The protocol:
Eight- to eleven-weeks-old Sprague-Dawley strain rats (300-400 g) were anesthetized by intraperitoneal injection of urethane (750 mg/kg) and α-chloralose (37.5 mg/kg), and their right carotid artery, left juglar vein and airway of the rat were cannulated. […] After stable bradycardia induced by intravenous administration of acetylcholine (10 μg/kg) was observed, a test compound was intravenously administered. Five minutes later, bradycardia was induced once again with acetylcholine administration. The inhibition ratio to the bradyeardia obtained before the administration of the test compound was calculated, and the dose of the test compound which inhibited the bradycardia obtained before the drug administration by 50% was recorded as ID50 value.

Another test concerns the target T7, muscarinic M1 receptor (Rattus norvegicus, UniProt P08482).
T7 construct: a cerebral cortex membrane preparation, 1 nM; from tissue; host or cells: rat cerebral cortex membranes (male SD rats)
T7 sequence (P08482 1-460): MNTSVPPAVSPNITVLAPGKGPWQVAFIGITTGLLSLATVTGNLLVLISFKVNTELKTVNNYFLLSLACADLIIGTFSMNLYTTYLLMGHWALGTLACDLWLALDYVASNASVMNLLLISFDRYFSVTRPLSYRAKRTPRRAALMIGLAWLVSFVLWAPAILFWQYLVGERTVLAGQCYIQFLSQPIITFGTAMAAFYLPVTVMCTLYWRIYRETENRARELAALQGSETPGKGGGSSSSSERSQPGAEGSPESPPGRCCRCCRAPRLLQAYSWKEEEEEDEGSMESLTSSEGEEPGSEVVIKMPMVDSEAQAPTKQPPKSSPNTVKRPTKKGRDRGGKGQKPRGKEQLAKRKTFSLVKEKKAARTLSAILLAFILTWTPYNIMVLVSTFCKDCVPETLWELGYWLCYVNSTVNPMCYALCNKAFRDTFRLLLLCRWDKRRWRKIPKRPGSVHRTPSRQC
The test can be described thus: Inhibition of M1 muscarinic receptor binding ([3H]-telenzepine, cerebral cortex membrane). As to conditions: 1 nM [3H]-telenzepine. The protocol:
as §1, §2

Each structure is given as a SMILES string.

Experimental for airway M3 receptor: Male SD strain rats (200-300 g) were sacrificed by exsanguination and the trachea was isolated. Ring segments (2 mm wide) were cut out from the trachea and cut transversely at the anterior cartilage part to make open ring preparations. Each preparation was suspended in a Magnus tube filled with 5 ml of Krebs-Henseleit solution (gassed with 95% O2 -5% CO2, at 37° C.) at an initial tension of 1.0 g and a resting tension of 0.6 g. The tension of the preparation was recorded isometrically. After being equilibrated for an hour, the preparation was made to contract twice by treatment with 10^-4 M carbachol, and the second contraction induced by carbachol was used as the reference contraction. After the preparation was washed with fresh solution to be recovered to the base line, a test compound was administered thereto (or no treatment was given). Ten minutes later, carbachol (10^-8 to 10^-3 M) was cumulatively administered in three-fold increased doses to obtain a dose-response curve. The dose-response curve was plotted by expressing responses as percentages based on the reference contraction of the preparation as 100%. The antagonistic potency (KB value) of the test compound was determined from the degree of shift of the dose-response curve obtained by treatment with the test compound.
Experimental for bladder M3 receptor: Male SD strain rats (200-300 g) were sacrificed by exsanguination and the urinary bladder was isolated. The bladders were cut into four longitudinal unfold sections, to form about 10 mm-long preparations. Each preparation was suspended in a Magnus tube filled with 5 ml of Krebs-Henseleit solution (gassed with 95% O2 -5% CO2 at 32° C.) at an initial tension of 0.5 g. The tension in the preparation was isometrically recorded. After an hour's equilibration, the preparation was contracted twice with 10^-4 M carbachol, the second contraction being recorded as the reference contraction. After the preparation was washed with fresh solution and recovered to the base line, a test compound was administered thereto (or no treatment was given). Ten minutes later, carbachol (10^-8 to 10^-3 M) was cumulatively administered to the preparation from at a low concentration to three-fold increased dose to obtain a dose-response curve. The dose-response curve was plotted by expressing responses as percentages based on the reference contraction of the preparation which was set to be 100%. The antagonistic potency (KB value) of the test compound was determined from the degree of shift in the dose-response curve resulted from the treatment with the test compound.

The Ki is the dissociation constant of the complex between target and ligand, obtained from inhibition or displacement. Low values mean a stronger hold on the target, high ones a looser hold on the target. Broadly, the Kb is the affinity of an antagonist, worked out from how it opposes an agonist. `Cc1cccc(CN2CCC(NC(=O)[C@](O)(c3ccccc3)C3CCCC3)CC2)n1.Cl.Cl` [Example 1, (2R)-N-[1-(6-methyl-2-pyridylmethyl)piperidin-4-yl]-2-cyclopentyl-2-hydroxy-2-phenylacetamide dihydrochloride]: the Ki on muscarinic M2 receptor came to 1100 nM; on muscarinic M3 receptor it was 2.9 nM. Besides, the Kb was 1100 nM on right atrium M2 receptor, 4.4 nM at airway M3 receptor, 70 nM on ileum M3 receptor and 3.6 nM at bladder M3 receptor. Further, the figures for the ED50 (in test [1]; in the test with bradycardia) were 37 µg/kg and more than 3000 µg/kg, respectively.

In the case of `CC(C)[N+]1(C)[C@@H]2CC[C@H]1C[C@@H](OC(=O)C(CO)c1ccccc1)C2` (stereo partly shown) [ipratropium], in test [1], the “activities in both airway constriction and bradycardia, in words” value was “potent activities in both cases”; the ED50 is 1.5 µg/kg. Also, in the test with bradycardia, the “selectivity of bronchodilation over bradycardiac response, in words” value is on record as “non-selective” and the ED50 is 1.8 µg/kg.

`COc1ccnc(CN2CCC(NC(=O)C(O)(c3ccccc3)C3CCCC3)CC2)c1` (stereo not shown) [Example 9, N-[1-(4-methoxy-2-pyridylmethyl)piperidin-4-yl]-2-cyclopentyl-2-hydroxy-2-phenylacetamide]: the Ki at muscarinic M1 receptor came to 29 nM. The affinity on muscarinic M2 receptor corresponds to a Ki of 1300 nM. At muscarinic M3 receptor, the Ki was determined as 9.4 nM, the “M1 / M3” value is listed as 3.1 and the “M2 / M3” value is reported as 140.

On to `O=C(NC1CCN(Cc2cccc(Cl)n2)CC1)C(O)(c1ccccc1)C1CCCC1` (stereo not shown) [Example 10, N-[1-(6-chloro-2-pyridylmethyl)piperidin-4-yl]-2-cyclopentyl-2-hydroxy-2-phenylacetamide], for which the Ki on muscarinic M1 receptor was determined as 16 nM. This compound gave a Ki on muscarinic M2 receptor of 1300 nM. For the same compound, at muscarinic M3 receptor, the Ki was found to be 7.6 nM, the “M1 / M3” value is 2.1 and the “M2 / M3” value is 170.

The compound `O=C(NC1CCN(Cc2cc(Cl)ccn2)CC1)C(O)(c1ccccc1)C1CCCC1` (stereo not shown) [Example 11, N-[1-(4-chloro-2-pyridylmethyl)piperidin-4-yl]-2-cylopentyl-2-hydroxy-2-phenylacetamide] had a Ki on muscarinic M1 receptor of 11 nM. The compound also gave an inhibition constant (Ki) at muscarinic M2 receptor of 730 nM. Besides, at muscarinic M3 receptor, the affinity corresponds to a Ki of 8.8 nM, the “M1 / M3” value turned out to be 1.3 and the “M2 / M3” value was determined as 83.

For the compound `CN1[C@@H]2CC[C@H]1C[C@@H](OC(=O)C(CO)c1ccccc1)C2` (stereo partly shown) [atropine], in [1], the “activities in both airway constriction and bradycardia, in words” value is “potent activities in both cases”; the ED50 was found to be 4.3 µg/kg. Also, in the test with bradycardia, the “selectivity of bronchodilation over bradycardiac response, in words” value is “non-selective” and the ED50 was 3.7 µg/kg.

The record behind these values is patent US6130232A, “Substituted piperidine derivatives as muscarinic M3 receptor antagonists” (Banyu Pharmaceutical Coaltd, priority 1995, dated 2000).
